These are literature values, as cited in US11804282B1, “Systems and methods for drug clustering” (nference, Inc., priority 2018, dated 2023).

The structures appear in SMILES notation.

Series [1] concerns distinct purified proteins. The settings on record: proteome-wide screening data (FIG. 3 inset).
For series [2], the target named is VEGFR2 protein (Homo sapiens, UniProt P35968). The settings on record: poly-protein screening (FIG. 4 inset).
Chain of VEGFR2 protein (P35968 20-1356): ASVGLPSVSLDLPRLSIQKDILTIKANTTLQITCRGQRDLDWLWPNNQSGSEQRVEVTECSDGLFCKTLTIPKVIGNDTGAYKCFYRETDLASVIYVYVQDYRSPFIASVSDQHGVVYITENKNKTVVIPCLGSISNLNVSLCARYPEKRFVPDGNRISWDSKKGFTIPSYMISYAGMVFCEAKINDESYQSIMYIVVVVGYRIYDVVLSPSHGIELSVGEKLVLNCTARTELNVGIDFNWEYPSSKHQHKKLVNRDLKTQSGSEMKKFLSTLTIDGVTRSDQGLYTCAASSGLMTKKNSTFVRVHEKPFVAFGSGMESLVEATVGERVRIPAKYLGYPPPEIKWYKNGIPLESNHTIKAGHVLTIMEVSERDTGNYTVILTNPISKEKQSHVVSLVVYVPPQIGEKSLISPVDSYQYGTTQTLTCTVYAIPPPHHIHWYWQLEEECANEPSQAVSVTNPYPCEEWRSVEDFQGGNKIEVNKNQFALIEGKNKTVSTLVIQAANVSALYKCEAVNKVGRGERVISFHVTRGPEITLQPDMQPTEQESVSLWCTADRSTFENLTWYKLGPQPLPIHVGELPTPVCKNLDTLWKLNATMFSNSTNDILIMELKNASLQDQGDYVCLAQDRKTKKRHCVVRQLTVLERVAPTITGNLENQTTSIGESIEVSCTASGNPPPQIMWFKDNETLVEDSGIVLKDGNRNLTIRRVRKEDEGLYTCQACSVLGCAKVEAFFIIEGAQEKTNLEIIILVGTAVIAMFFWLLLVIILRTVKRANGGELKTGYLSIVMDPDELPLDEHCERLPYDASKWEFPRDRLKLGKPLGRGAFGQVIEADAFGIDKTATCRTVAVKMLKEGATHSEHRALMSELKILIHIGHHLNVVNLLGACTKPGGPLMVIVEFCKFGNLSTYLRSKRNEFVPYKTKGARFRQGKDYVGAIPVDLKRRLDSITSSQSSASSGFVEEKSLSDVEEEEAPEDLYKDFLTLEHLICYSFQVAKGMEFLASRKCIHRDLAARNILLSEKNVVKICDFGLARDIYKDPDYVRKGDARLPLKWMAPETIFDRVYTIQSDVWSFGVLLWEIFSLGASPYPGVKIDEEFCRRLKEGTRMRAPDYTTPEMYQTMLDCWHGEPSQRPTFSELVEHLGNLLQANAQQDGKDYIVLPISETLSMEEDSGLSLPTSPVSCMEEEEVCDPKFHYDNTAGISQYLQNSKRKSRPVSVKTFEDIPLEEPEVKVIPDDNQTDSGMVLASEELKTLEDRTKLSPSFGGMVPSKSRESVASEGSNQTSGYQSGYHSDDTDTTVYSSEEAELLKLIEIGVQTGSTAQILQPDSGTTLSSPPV

On to `Cc1ccc(NC(=O)c2ccc(CN3CCN(C)CC3)cc2)cc1Nc1nccc(-c2cccnc2)n1` [imatinib], for which the “number of distinct purified proteins bound” value in series [1] was “less than 50 distinct purified proteins”. Further, the “affinity to the VEGFR2 protein” value in series [2] is on record as “almost no affinity”.
